Structures are written as SMILES.

This test has as its target T1, C-terminal GST-tagged, recombinant, human IGF-1R, amino acids 954-1367 (Homo sapiens, UniProt P08069).
T1 construct: human IGF-1R, amino acids 954-1367 expressed by baculovirus in Sf21 cells; GST (C); purchased Cell Signaling Technology; host or cells: baculovirus in Sf21 cells
In words: IGF-1R kinase activity, homogenous time-resolved fluorescence (HTRF) in vitro kinase assay. Format: biochemical. The following applies: IGF-1R kinase HTRF assay, ATP 50 μM, biotinylated peptide substrate 0.5 μM, 60 minutes at room temperature. As to the method:
IGF-1R kinase activity was assayed by a homogenous time-resolved fluorescence (HTRF) in vitro kinase assay (Mathis, G., HTRF(R) Technology. J Biomol Screen, 1999. 4(6): p. 309-314). Specifically, 10 μL C-terminal GST-tagged, recombinant, human IGF-1R, amino acids 954-1367 expressed by baculovirus in Sf21 cells (Cell Singaling Technology) was mixed with 10 μL inhibitor (various concentrations, 2% final DMSO) and 10 μL of ATP (50 μM final concentration) in reaction buffer (50 mM HEPES, pH […], 2 mM MnCl2, 0.1% BSA and 1 mM DTT, 40 μL final volume). The reaction was initiated by addition of 10 μL of biotinylated peptide substrate (Biotin-Ahx-[…], 0.5 μM final concentration) in a black 384-well plate (Packard). After 60 minutes incubation at room temperature, the reaction was quenched by addition of 60 μL stop/revelation buffer to give 30 mM EDTA, 1 μg/mL streptavidin-APC (Prozyme), 50 ng/mL anti-phosphotyrosine mAb PT66-K Europium Cryptate, 30 mM HEPES, pH 7.5, 120 mM KF, 0.005% Tween-20, 0.05% BSA). The quenched reaction was allowed to stand at room temperature for 1 hour and then read in a time-resolved fluorescence detector (Envision, Perkin Elmer) at 615 nm and 665 nm simultaneously. The ratio between the signal of 615 nm and 665 nm was used in the calculation of the IC50.
(TR-FRET usually uses a lanthanide donor and a delayed reading to cut background.)

T1 sequence (P08069 954-1367): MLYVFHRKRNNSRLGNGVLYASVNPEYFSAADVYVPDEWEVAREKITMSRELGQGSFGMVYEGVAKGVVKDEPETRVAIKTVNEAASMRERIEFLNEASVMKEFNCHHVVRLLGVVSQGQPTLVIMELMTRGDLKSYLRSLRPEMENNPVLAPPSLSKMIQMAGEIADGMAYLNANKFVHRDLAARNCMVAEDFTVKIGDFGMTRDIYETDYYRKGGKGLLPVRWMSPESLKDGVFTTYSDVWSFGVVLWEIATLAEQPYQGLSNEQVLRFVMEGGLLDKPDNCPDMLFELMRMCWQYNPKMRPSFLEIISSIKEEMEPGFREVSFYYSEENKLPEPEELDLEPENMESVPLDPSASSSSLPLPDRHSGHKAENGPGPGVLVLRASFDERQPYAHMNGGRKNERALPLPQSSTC

Consider `COc1cc(-c2nc3sccn3c2-c2ccnc(Nc3ccc(CN(C)C)cc3)n2)ccc1OCc1ccccc1` [Example 83], for which the IC50 – broadly, the midpoint of a concentration-inhibition curve – was 25 to 100 nM.
For `COc1cc(N)ccc1Nc1nccc(-c2c(-c3ccc(OCc4ccccc4)c(OC)c3)nc3ccccn23)n1` [Example 46, N^1-(4-{2-[4-(benzyloxy)-3-methoxyphenyl]imidazo[1,2-a]pyridin-3-yl}pyrimidin-2-yl)-2-methoxybenzene-1,4-diamine], the IC50 was 25 to 100 nM.
With `Fc1ccc(Nc2nccc(-c3c(-c4ccc(OCc5ccccc5)cc4)nc4ccccn34)n2)c(F)c1` [Example 29, 4-{2-[4-(benzyloxy)phenyl]imidazo[1,2-a]pyridin-3-yl}-N-(2,4-difluorophenyl)pyrimidin-2-amine], the IC50 is greater than 1000 nM.
For `COc1ccc(S(C)(=O)=O)cc1Nc1nccc(-c2c(-c3ccc(OCc4ccccc4)c(OC)c3)nc3ccccn23)n1` [Example 34, 4-{2-[4-(benzyloxy)-3-methoxyphenyl]imidazo[1,2-a]pyridin-3-yl}-N-[2-methoxy-5-(methylsulfonyl)phenyl]pyrimidin-2-amine] the value was 25 to 100 nM.
As for `COc1cc(-c2nc3ccccn3c2-c2ccnc(Nc3ccc4c(c3)CCNC4)n2)ccc1OCc1ccccc1` [Example 61, N-(4-{2-[4-(benzyloxy)-3-methoxyphenyl]imidazo[1,2-a]pyridin-3-yl}pyrimidin-2-yl)-1,2,3,4-tetrahydroisoquinolin-6-amine], the IC50 was less than 25 nM.
For `COc1cc(-c2nc3ccccn3c2-c2ccnc(Nc3ccc(CCN(C)C)cc3)n2)ccc1OCc1ccccc1` [Example 69, 4-{2-[4-(benzyloxy)-3-methoxyphenyl]imidazo[1,2-a]pyridin-3-yl}-N-{4-[2-(dimethylamino)ethyl]phenyl}pyrimidin-2-amine] the value was less than 25 nM; for `COc1cc(-c2nc3ccccn3c2-c2ccnc(Nc3ccc(N4CCS(=O)(=O)CC4)cc3)n2)ccc1OCc1ccccc1` [Example 32, 4-{2-[4-(benzyloxy)-3-methoxyphenyl]imidazo[1,2-a]pyridin-3-yl}-N-[4-(1,1-dioxidothiomorpholin-4-yl)phenyl]pyrimidin-2-amine], 101 to 500 nM; for `COc1cc(N2CCC(N(C)C)CC2)ccc1Nc1nccc(-c2c(-c3ccc(OCc4ccccc4)c(OC)c3)nc3sccn23)n1` [Example 84, 4-{6-[4-(benzyloxy)-3-methoxyphenyl]imidazo[2,1-b][1,3]thiazol-5-yl}-N-{4-[4-(dimethylamino)piperidin-1-yl]-2-methoxyphenyl}pyrimidin-2-amine], less than 25 nM.
Take `COc1cc(-c2nc3ccccn3c2-c2ccnc(Nc3cnn(CCN4CCCC4)c3)n2)ccc1OCc1ccccc1` [Example 37, 4-{2-[4-(benzyloxy)-3-methoxyphenyl]imidazo[1,2-a]pyridin-3-yl}-N-[1-(2-pyrrolidin-1-ylethyl)-1H-pyrazol-4-yl]pyrimidin-2-amine]: the concentration for half-maximal inhibition (IC50) lay within 101 to 500 nM.
As to `COc1ccc(COc2ccc(-c3nc4ccccn4c3-c3ccnc(Nc4cccc(CCN(C)C)c4)n3)cc2)cc1` [Example 17, N-{3-[2-(dimethylamino)ethyl]phenyl}-4-(2-{4-[(4-methoxybenzyl)oxy]phenyl}imidazo[1,2-a]pyridin-3-yl)pyrimidin-2-amine], the concentration for half-maximal inhibition (IC50) is 101 to 500 nM.
For `c1ccc(COc2ccc(-c3nc4ccccn4c3-c3ccnc(Nc4ccccc4)n3)cc2)cc1` [Example 7, 4-{2-[4-(benzyloxy)phenyl]imidazo[1,2-a]pyridin-3-yl}-N-phenylpyrimidin-2-amine] the value was greater than 1000 nM.
The same measure for `CN(C)CCc1cccc(Nc2nccc(-c3c(-c4ccc(OCc5ccccc5)cc4)nc4ccccn34)n2)c1` [Example 1, 4-{2-[4-(benzyloxy)phenyl]imidazo[1,2-a]pyridin-3-yl}-N-{3-[2-(dimethylamino)ethyl]phenyl}pyrimidin-2-amine]: less than 25 nM.
For `Cn1cc(Nc2nccc(-c3c(-c4ccc(OCc5ccccc5)cc4)nc4ccccn34)n2)cn1` [Example 26, 4-{2-[4-(benzyloxy)phenyl]imidazo[1,2-a]pyridin-3-yl}-N-(1-methyl-1H-pyrazol-4-yl)pyrimidin-2-amine] the value was 101 to 500 nM.

The record behind these values is patent US8354422B2, “Pyrimidine inhibitors of kinase activity” (Abbott Laboratories Inc., priority 2009, dated 2013).
